In EP0394553A2, “Use of fluorine containing pyridone carboxylic acid derivatives for preparing a medicament for the treatment of HIV infections” (DAIICHI PHARMACEUTICAL CO., LTD., priority 1989, dated 1990):

Columns and labels:
CEM cells = assay: Cytotoxicity in uninfected CEM cells (trypan blue staining); conditions: at concentrations not exceeding 10 mcg/ml
Experimental: (§1) Human T cell-derived, T4 antigen-positive CEM cells (provided by the Institut Pasteur, France) were used as host cells of HIV. Cell culture was carried out in a carbon dioxide-containing atmosphere in an incubator maintained at 37°C according to a conventional method [cf. […] The culture supernatant (5×10⁶ TCID₅₀/ml) obtained by subjecting CEM cells to HIV (LAV 1) infection and stored at -70°C was used as the HIV source.
The cell culture medium (10 ml) placed in a plastic culture flask (25 cm²) was inoculated with CEM cells to a cell density of 2.5×10⁵ cells/ml and incubation was performed for 3 days. Then, the culture was transferred to a 15-ml plastic centrifuge tube and centrifuged at 1,000 revolutions per minute for 5 minutes for medium removal. A fresh portion of the medium was added to the cells, the cell density being adjusted to 5.0×10⁵ cells/ml. The following mixture (1.0 ml) containing the cell suspension prepared in the above manner was incubated in a 24-well plastic culture plate for 4 days:
The cells in each well were then suspended uniformly in the medium by pipetting and a 0.5-ml portion of the suspension was separated.
A fresh 2-ml portion of the test substance-free medium was added to the remaining cell suspension (0.5 ml) and, after a further 3-day incubation, a cell suspension was produced in the same manner and a 0.5-ml portion thereof was removed.
The cell suspensions collected in the above manner were subjected to viable cell count and viable cell percentage determinations by trypan blue staining.

in vivo = conditions: mouse, po
HIV (LAV 1) = assay: microbe, parasite or virus in culture; conditions: for Viable cell count / Viral antigen-positive cell percentage: 4-day addition
Experimental: as §1
The medium for cell culture (10 ml) placed in a plastic culture flask (25 cm²) was inoculated with CEM cells at a cell density of 2.5×10⁵ cells/ml. After 3 days of incubation, the culture was transferred to a 15-ml centrifuge tube and subjected to centrifugation at 1,000 revolutions per minute for 5 minutes for sedimentation of cells and removal of the culture medium.
The stock viral suspension was added to the host cells thus prepared to an MOI of 0.05 and the mixture was maintained at 37°C for 90 minutes with stirring at 30-minute intervals for viral adsorption. The medium was added to HIV-infected cells to a cell density of 5.0×10⁵ cells/ml to give an HIV-infected cell suspension.
A mixture (1.0 ml) of the three constituents mentioned below was added to each well of a 24-well plastic culture plate and the test substance final concentration was adjusted to 10 mcg/ml, 5 mcg/ml, 2.5 mcg/ml or 1 mcg/ml. The "no addition" wells (0 mcg/ml) served as controls.
After 4 days of incubation following viral infection, the cells in each well on the 24-well culture plate were suspended uniformly by pipetting and a 0.5-ml portion of the suspension was separated. A 2.0-ml portion of test substance-free fresh medium was added to the remaining 0.5-ml portion of the cell suspension, followed by incubation.
Seven days after viral infection, pipetting was performed to give a uniform cell suspension in each well and a 0.5-ml portion of the suspension was separated.
Incubation was continued and, 10 days after viral infection, a uniform cell suspension was produced in the same manner in each well and a 1.5-ml portion thereof was separated. A fresh 2.0-ml portion of the medium free of (or containing) the test substance was added to the well, followed by further incubation.
Fifteen days after viral infection, the cells in each well were suspended uniformly in the same manner in the medium and a 2.0-ml portion of the suspension was separated. A fresh 2.0-ml portion of the medium free of (or containing) the test substance was added to the remaining 0.5 ml of the cell suspension and incubation was continued.
Medium exchange was performed in the same manner 20 days and 25 days after viral infection.
The cell suspensions collected 4 days, 7 days, 10 days, 20 days and 30 days after viral infection were tested for viable cell count and viable cell percentage by trypan blue staining. At the same time, viral antigen-positive cell percentage determination was carried out by immunofluorescence using an anti-HIV antiserum isolated from a healthy carrier of HIV.
The numerical values given each is the mean for the respective two wells on the culture plate. The viable cell count is the total cell count minus the count of dead cells stained with trypan blue. The viable cell percentage is the percentage of viable cells among all the cells including dead cells. The viral antigen-positive cell percentage is the percentage of cells indicating antigen expression as found among all the cells including dead cells.

[1] = Human immunodeficiency virus 1, CCRF-CEM, 96 h, read-out: Viable cell percentage

Structure (SMILES)	cytotoxicity (CEM cells)	Viable cell count (HIV (LAV 1); 1 mcg/ml, after 4 days)	Viral antigen-positive cell percentage (HIV (LAV 1); 1 mcg/ml, after 4 days)	Viable cell count (HIV (LAV 1); 1 mcg/ml, after 7 days)	Viral antigen-positive cell percentage (HIV (LAV 1); 1 mcg/ml, after 7 days)	Viable cell count (HIV (LAV 1); 1 mcg/ml, after 10 days)	Viable cell count (HIV (LAV 1); 1 mcg/ml, after 20 days)	Viable cell count (HIV (LAV 1); 1 mcg/ml, after 30 days)	Viable cell count (HIV (LAV 1); 2.5 mcg/ml, after 4 days)	Viral antigen-positive cell percentage (HIV (LAV 1); 2.5 mcg/ml, after 4 days)	Viable cell count (HIV (LAV 1); 2.5 mcg/ml, after 7 days)	Viral antigen-positive cell percentage (HIV (LAV 1); 2.5 mcg/ml, after 7 days)	Viable cell count (HIV (LAV 1); 2.5 mcg/ml, after 10 days)	Viable cell count (HIV (LAV 1); 2.5 mcg/ml, after 20 days)	Viable cell count (HIV (LAV 1); 2.5 mcg/ml, after 30 days)	Viable cell count (HIV (LAV 1); 5 mcg/ml, after 4 days)	Viral antigen-positive cell percentage (HIV (LAV 1); 5 mcg/ml, after 4 days)	Viable cell count (HIV (LAV 1); 5 mcg/ml, after 7 days)	Viral antigen-positive cell percentage (HIV (LAV 1); 5 mcg/ml, after 7 days)	Viable cell count (HIV (LAV 1); 5 mcg/ml, after 10 days)	other results
CCn1cc(C(=O)O)c(=O)c2cc(F)c(N3CCNCC3)nc21 [ENX, 1-ethyl-6-fluoro-1,4-dihydro-4-oxo-7-(1-piperazinyl)-1,8-naphthyridine-3-carboxylic acid sesqui-hydrate]	no cytotoxicity	220 × 10⁴ cells/ml	88%	64 × 10⁴ cells/ml	70%	29 × 10⁴ cells/ml	7 × 10⁴ cells/ml	0 × 10⁴ cells/ml	240 × 10⁴ cells/ml	90%	67 × 10⁴ cells/ml	65%	30 × 10⁴ cells/ml	1 × 10⁴ cells/ml	2 × 10⁴ cells/ml	210 × 10⁴ cells/ml	93%	58 × 10⁴ cells/ml	68%	78 × 10⁴ cells/ml	LD50 (in vivo): ≥ 4000 mg/kg; Viable cell count (HIV (LAV 1); 5 mcg/ml, after 20 days): 11 × 10⁴ cells/ml; Viable cell count (HIV (LAV 1); 5 mcg/ml, after 30 days): 310 × 10⁴ cells/ml; Viral antigen-positive cell percentage (HIV (LAV 1); 5 mcg/ml, after 30 days): ≦1%; Viable cell count (HIV (LAV 1); 10 mcg/ml, after 4 days): 140 × 10⁴ cells/ml; Viral antigen-positive cell percentage (HIV (LAV 1); 10 mcg/ml, after 4 days): 88%; Viable cell count (HIV (LAV 1); 10 mcg/ml, after 7 days): 52 × 10⁴ cells/ml; Viral antigen-positive cell percentage (HIV (LAV 1); 10 mcg/ml, after 7 days): 68%; Viable cell count (HIV (LAV 1); 10 mcg/ml, after 10 days): 150 × 10⁴ cells/ml; Viral antigen-positive cell percentage (HIV (LAV 1); 10 mcg/ml, after 10 days): 30%; Viable cell count (HIV (LAV 1); 10 mcg/ml, after 20 days): 178 × 10⁴ cells/ml; Viral antigen-positive cell percentage (HIV (LAV 1); 10 mcg/ml, after 20 days): 5%; Viable cell count (HIV (LAV 1); 10 mcg/ml, after 30 days): 379 × 10⁴ cells/ml; Viral antigen-positive cell percentage (HIV (LAV 1); 10 mcg/ml, after 30 days): ≦1%; viability at 1 µg/mL (HIV (LAV 1); [1]): 95%; viability at 2.5 µg/mL (HIV (LAV 1); [1]): 95%; viability at 5 µg/mL (HIV (LAV 1); [1]): 98%; viability at 10 µg/mL (HIV (LAV 1); [1]): 97%
Cl.O.O=C(O)c1cn(C2CC2)c2cc(N3CCNCC3)c(F)cc2c1=O [CPFX, 1-cyclopropyl-6-fluoro-1,4-dihydro-4-oxo-7-(1-piperazinyl)-3-quinoline carboxylic acid hydrochloride hydrate]	no cytotoxicity	220 × 10⁴ cells/ml	83%	86 × 10⁴ cells/ml	62%	52 × 10⁴ cells/ml	8 × 10⁴ cells/ml	33 × 10⁴ cells/ml	200 × 10⁴ cells/ml	87%	98 × 10⁴ cells/ml	60%	320 × 10⁴ cells/ml	220 × 10⁴ cells/ml	360 × 10⁴ cells/ml	220 × 10⁴ cells/ml	92%	76 × 10⁴ cells/ml	67%	310 × 10⁴ cells/ml	Viral antigen-positive cell percentage (HIV (LAV 1); 1 mcg/ml, after 10 days): 37%; Viral antigen-positive cell percentage (HIV (LAV 1); 1 mcg/ml, after 20 days): 33%; Viral antigen-positive cell percentage (HIV (LAV 1); 2.5 mcg/ml, after 10 days): 31%; Viral antigen-positive cell percentage (HIV (LAV 1); 2.5 mcg/ml, after 20 days): 3%; Viral antigen-positive cell percentage (HIV (LAV 1); 2.5 mcg/ml, after 30 days): ≦1%; Viral antigen-positive cell percentage (HIV (LAV 1); 5 mcg/ml, after 10 days): 29%; Viable cell count (HIV (LAV 1); 5 mcg/ml, after 20 days): 280 × 10⁴ cells/ml; Viral antigen-positive cell percentage (HIV (LAV 1); 5 mcg/ml, after 20 days): 4%; Viable cell count (HIV (LAV 1); 5 mcg/ml, after 30 days): 320 × 10⁴ cells/ml; Viral antigen-positive cell percentage (HIV (LAV 1); 5 mcg/ml, after 30 days): ≦1%; Viable cell count (HIV (LAV 1); 10 mcg/ml, after 4 days): 180 × 10⁴ cells/ml; Viral antigen-positive cell percentage (HIV (LAV 1); 10 mcg/ml, after 4 days): 88%; Viable cell count (HIV (LAV 1); 10 mcg/ml, after 7 days): 65 × 10⁴ cells/ml; Viral antigen-positive cell percentage (HIV (LAV 1); 10 mcg/ml, after 7 days): 57%; Viable cell count (HIV (LAV 1); 10 mcg/ml, after 10 days): 250 × 10⁴ cells/ml; Viral antigen-positive cell percentage (HIV (LAV 1); 10 mcg/ml, after 10 days): 27%; Viable cell count (HIV (LAV 1); 10 mcg/ml, after 20 days): 300 × 10⁴ cells/ml; Viral antigen-positive cell percentage (HIV (LAV 1); 10 mcg/ml, after 20 days): 10%; Viable cell count (HIV (LAV 1); 10 mcg/ml, after 30 days): 330 × 10⁴ cells/ml; Viral antigen-positive cell percentage (HIV (LAV 1); 10 mcg/ml, after 30 days): ≦1%
